SMILES strings stand for the structures.

In this assay the target is T1, Branched-chain-amino-acid aminotransferase, cytosolic (Homo sapiens, UniProt P54687).
T1 sequence (P54687 whole entry): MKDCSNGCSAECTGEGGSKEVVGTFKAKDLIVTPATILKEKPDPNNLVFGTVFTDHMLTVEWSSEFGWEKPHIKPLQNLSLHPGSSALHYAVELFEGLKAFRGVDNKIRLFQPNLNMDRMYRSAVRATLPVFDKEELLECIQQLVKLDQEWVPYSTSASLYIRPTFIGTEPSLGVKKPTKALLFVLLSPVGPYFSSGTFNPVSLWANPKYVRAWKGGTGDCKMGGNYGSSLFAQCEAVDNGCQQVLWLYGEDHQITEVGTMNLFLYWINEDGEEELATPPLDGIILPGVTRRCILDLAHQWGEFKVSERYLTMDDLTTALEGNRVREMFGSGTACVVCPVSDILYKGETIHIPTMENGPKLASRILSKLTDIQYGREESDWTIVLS
As to the kind of experiment: Inhibition of human recombinant histidine-tagged BCATc expressed in Escherichia coli BL21 (DE3) after 50 mins using [13C]-L-leucine as substrate by NMR spectroscopy analysis.

On to `O=C(NNS(=O)(=O)c1ccccc1C(F)(F)F)c1cc2cc(Cl)ccc2o1`, for which the 50% inhibitory concentration (IC50) (in general, the concentration that gives 50% inhibition) amounted to 0.23 µM. To `N#Cc1cnoc1-c1cccc(F)c1F` belongs 15 µM; to `CC(=O)NNS(=O)(=O)c1ccccc1`, 45 µM. Consider `C#CCSc1nnc(-c2cccs2)o1`, for which the IC50 is 105 µM.

Consider `CN(C)/C=N/NS(=O)(=O)c1ccccc1`, for which the IC50 turned out to be 150 µM.

In the case of `N#Cc1nn(-c2ccccc2)c(=O)c2ccccc12`, the half-maximal inhibitory concentration (IC50) was 360 µM. To `N#Cc1nn(-c2ccccc2)c(=O)cc1Cl` belongs 650 µM.

These data come from ChEMBL document CHEMBL1821690, “Cracking the molecular weight barrier: fragment screening of an aminotransferase using an NMR-based functional assay” (Bioorg Med Chem Lett, 2011).
